Measurements published in patent publication EP0933379B1, “NOVEL PEPTIDE DERIVATIVES HAVING THIAZOLYL-ALANINE RESIDUE” (SHIONOGI & CO., LTD., priority 1996, dated 1998).

Experiments:
[1] = Change of blood glucose levels after administration of the test compounds to rats; assay type: in vivo, male Wistar rats; conditions: for blood glucose level as a percentage compared to the baseline level: 50 µmol/kg intravenously, vehicle-treated rats = 100 %
Description: Fasted male Wistar rats (250-350 g) were anaesthesized with urethane. Test compounds were solubilized in saline and administered intravenously (50 µmol/kg). Body temperature of rats were kept at 37 °C by a hot blanket. After the administration, blood was collected from jugular vein at 5, 15, 30, 60, 120, 180, 240, 300, 360, 420, and 480 min and blood glucose levels were measured (BM Test blood sugar. Wako Chemical Indus.). The blood glucose levels at each sampling time in vehicle (saline)-treated rats were defined as the baseline level (100 %). […]

[2] = system: reserpine-induced hypothermia mice; test: Anti-reserpine action after oral administration of test compounds; assay type: in vivo, mice (ddY, male); conditions: 10 µmol/kg in saline, calculated from AUC of rectal temperature over 420 min versus vehicle, reserpine 3 mg/kg s.c. 18 hours before
Description: Reserpine-induced hypothemia mice (ddY, male, body weight 30 to 40 g) were prepared by the subcutaneous administration of reserpine in back side of the […] (3 mg/kg) at 18 hours before test compounds administration. Mice with their body temperature about 25 °C were used in the experiment. Test compounds were solubilized in saline and 0.2 ml (10 µmol/kg) of them were administered by sonde for oral administration. After the administration, rectal temperature was measured at 30, 60, 120, 180, 240, 300, […]. The area under curve (AUC) of the body temperature-time profile was calculated by the general trapezoidal method. In the control experiment, vehicle (saline) was administered to mice and the rectal temperature was measured by the same protocol.
Effective dose: Dose which can increase the average of body temperatures at 1 °C for 420 min in reserpine-induced hypothermia mice.

[3] = system: reserpine-induced hypothermia mice; test: Anti-reserpine action after intravenous and intracerebroventricular administration of test compounds; assay type: in vivo, mice (ddY, male); conditions: calculated from AUC of rectal temperature over 180 min versus vehicle; for Dose which can increase the average of body temperatures at 1 °C for 180 min in reserpine-induced hypothermia mice, administered intracerebroventricularly: intracerebroventricular, 0.21 µmol/kg; for Dose which can increase the average of body temperatures at 1 °C for 180 min in reserpine-induced hypothermia mice, administered intravenously: intravenous, 1 µmol/kg
Description: Recerpine-induced hypothermia mice (ddY, male) were prepared by the administration of reserpine (3 mg/kg) at 18 hours before test compounds administration. Mice with their body temperature about 25 °C were used in the experiment. Test compounds were solubilized in saline and 0.1 ml (1 µmol/kg) of them were administered intravenously and 0.005 ml (0.21 µmol/kg) of them were administered intracerebroventricularly, respectively. After the administration, rectal temperature was measured at 30, 60, 120, and 180 min. The area under curve (AUC) of the body temperature-time profile was calculated by the general trapezoidal method. In the control experiment, vehicle (saline) was administered to mice intravenously or intracerebroventricularly and the rectal temperature was measured by the same protocol.
Effective dose: Dose which can increase the average of body temperatures at 1°C for 180 min in reserpine-induced hypothermia mice.

[4] = time 0 min, fasted urethane-anaesthetized rats

Row | SMILES | blood glucose level as a percentage compared to the baseline level [1, 4] [%] | blood glucose level as a percentage compared to the baseline level ([1]; time 5 min) [%] | blood glucose level as a percentage compared to the baseline level ([1]; time 15 min) [%] | blood glucose level as a percentage compared to the baseline level ([1]; time 30 min) [%] | blood glucose level as a percentage compared to the baseline level ([1]; time 60 min) [%] | blood glucose level as a percentage compared to the baseline level ([1]; time 120 min) [%] | blood glucose level as a percentage compared to the baseline level ([1]; time 180 min) [%] | blood glucose level as a percentage compared to the baseline level ([1]; time 240 min) [%] | blood glucose level as a percentage compared to the baseline level ([1]; time 300 min) [%] | blood glucose level as a percentage compared to the baseline level ([1]; time 360 min) [%] | blood glucose level as a percentage compared to the baseline level ([1]; time 420 min) [%] | blood glucose level as a percentage compared to the baseline level ([1]; time 480 min) [%] | Dose which can increase the average of body temperatures at 1 °C for 420 min in reserpine-induced hypothermia mice (by oral) [2] [µmol/kg] | Dose which can increase the average of body temperatures at 1 °C for 180 min in reserpine-induced hypothermia mice, administered intracerebroventricularly [3] [µmol/kg] | Dose which can increase the average of body temperatures at 1 °C for 180 min in reserpine-induced hypothermia mice, administered intravenously [3] [µmol/kg] | acute rise of the blood glucose level and acute fall by the rebound ([1]; result in words, general description)
1 | C[C@H]1OC(=O)N[C@H]1C(=O)N[C@@H](Cc1cscn1)C(=O)N1CCC[C@H]1C(N)=O (mixture of isomers) [I-10, cis-L-5-methyl-2-oxo-oxazolidine-4-yl-carbonyl-3-(4-thiazolyl)-L-alanyl-L-prolineamide] | 107.7 | 119.9 | 104.3 | 109.1 | 112.1 | 126.5 | 105.3 | 110.9 | 104.0 | 100.4 | 102.6 | 111.8 | 1.14 | 0.025 | 0.11 | –
2 | C[C@H]1OC(=O)N(CN2CCOCC2)[C@H]1C(=O)N[C@@H](Cc1cscn1)C(=O)N1CCC[C@H]1C(N)=O (mixture of isomers) [I-40, cis-L-3-morpholinomethyl-5-methyl-2-oxo-oxazolidine-4-yl-carbonyl-3-(4-thiazolyl)-L-alanyl-L-prolineamide] | – | – | – | – | – | – | – | – | – | – | – | – | 1.65 | – | – | –
3 | CN1C(=O)C[C@@H](C(=O)N[C@@H](Cc2cscn2)C(=O)N2CSC[C@H]2C(N)=O)NC1=O [I-5] | – | – | – | – | – | – | – | – | – | – | – | – | 1.22 | – | – | –
4 | C[C@@H]1OC(=O)N[C@@H]1C(=O)N[C@@H](Cc1cscn1)C(=O)N1CSC[C@H]1C(N)=O [I-11] | – | – | – | – | – | – | – | – | – | – | – | – | 2.03 | – | – | –
5 | CC(C)OC(=O)CNC(=O)[C@@H]1CCCN1C(=O)[C@H](Cc1cscn1)NC(=O)[C@H]1NC(=O)O[C@H]1C [I-30] | – | – | – | – | – | – | – | – | – | – | – | – | 2.59 | – | – | –
6 | NC(=O)[C@@H]1CCCN1C(=O)[C@H](Cc1cnc[nH]1)NC(=O)[C@@H]1CCC(=O)N1 [TRH, L-pyroglutamyl-L-histidyl-L-prolineamide] | 116.3 | 114.6 | 123.3 | 137.9 | 153.5 | 139.1 | 119.1 | 112.6 | 113.2 | 103.5 | 102.6 | 97.1 | 42.68 | 0.033 | 9.84 | acutely raises up the blood glucose level
